Measured values published in publication PMC8793051 (ACS Omega, 2022).

Experiments:
SF-268 = assay: NCI-60 SRB growth assay; assay type: cell-based, human; settings: for GI50 / CC50: Homo sapiens; for GI50 / TGI: SF-268; for CC50: SF-268, read-out: LC50
TK-10 = assay: NCI-60 SRB growth assay; assay type: cell-based, human; settings: for GI50 / CC50: Homo sapiens; for GI50 / TGI: TK-10; for CC50: TK-10, read-out: LC50
OVCAR-8 = assay: NCI-60 SRB growth assay; assay type: cell-based, human; settings: for GI50 / TGI: OVCAR-8
RPMI-8226 = assay: NCI-60 SRB growth assay; assay type: cell-based, human; settings: for GI50 / CC50: Homo sapiens; for GI50 / TGI: RPMI-8226; for CC50: RPMI-8226, read-out: LC50
NCI-H23 = assay: NCI-60 SRB growth assay; assay type: cell-based, human; settings: for GI50 / CC50: Homo sapiens; for GI50: NCI-H23; for CC50: NCI-H23, read-out: LC50; for TGI: NCI–H23
COLO 205 = assay: NCI-60 SRB growth assay; assay type: cell-based, human; settings: for TGI / GI50: COLO 205; for GI50 / CC50: Homo sapiens; for CC50: COLO 205, read-out: LC50
SK-OV-3 = assay: NCI-60 SRB growth assay; assay type: cell-based, human; settings: for GI50 / CC50: Homo sapiens; for GI50 / TGI: SK-OV-3; for CC50: SK-OV-3, read-out: LC50
K-562 = assay: NCI-60 SRB growth assay; assay type: cell-based, human; settings: for GI50 / CC50: Homo sapiens; for GI50: K562; for TGI: K-562; for CC50: K562, read-out: LC50
SNB-19 = assay: NCI-60 SRB growth assay; assay type: cell-based, human; settings: for CC50: SNB-19, read-out: LC50
MDA-MB-231 cells = assay: Cell cycle analysis by flow cytometry; assay type: cell-based, human; settings: at 6 and 12 h; control 1–2%

| SMILES | GI50 (SF-268) [nM] | CC50 (SF-268) [nM] | TGI (SF-268) [nM] | GI50 (TK-10) [nM] | CC50 (TK-10) [nM] | TGI (TK-10) [nM] | TGI (HL-60(TB)) [nM] | GI50 (OVCAR-8; Homo sapiens) [nM] | TGI (OVCAR-8) [nM] | GI50 (RPMI-8226) [nM] | CC50 (RPMI-8226) [nM] | TGI (RPMI-8226) [nM] | GI50 (NCI-H23) [nM] | CC50 (NCI-H23) [nM] | TGI (NCI-H23) [nM] | TGI (COLO 205) [nM] | GI50 (COLO 205) [nM] | CC50 (COLO 205) [nM] | GI50 (SK-OV-3) [nM] | GI50 (K-562) [nM] | also measured |
| --- | --- | --- | --- | --- | --- | --- | --- | --- | --- | --- | --- | --- | --- | --- | --- | --- | --- | --- | --- | --- | --- |
| CCCN1CCN(c2ccc3[nH]c(-c4ccc5[nH]c(-c6ccc(OCC)c(OCC)c6)nc5c4)nc3c2)CC1 [11a, 2-(2-(3,4-Diethoxyphenyl)-1H-benzo[d]imidazol-5-yl)-5-(4-propylpiperazin-1-yl)-1H-benzo[d]imidazole] | 1900 | 68800 | 11500 | 1220 | 2470 | 4900 | 2700 | 450 | 2160 | 470 | > 100000 | 2500 | 250 | 4240 | 700 | 1290 | 160 | 5400 | 2100 | 310 | CC50 (OVCAR-8; Homo sapiens, OVCAR-8, read-out: LC50): > 100000 nM; CC50 (SK-OV-3): 9900 nM; TGI (SK-OV-3): 10200 nM; TGI (K-562): 1500 nM; CC50 (SNB-19; Homo sapiens): 5600 nM; TGI (SNB-19; SNB-19): 2180 nM |
| CCCCN1CCN(c2ccc3[nH]c(-c4ccc5[nH]c(-c6ccc(OCC)c(OCC)c6)nc5c4)nc3c2)CC1 [12a, 5-(4-Butylpiperazin-1-yl)-2-(2-(3,4-diethoxyphenyl)-1H-benzo[d]imidazol-5-yl)-1H-benzo[d]imidazole] | 2660 | > 100000 | 22000 | 1660 | > 100000 | 5170 |  | 890 | 3060 | 430 | > 100000 | 2060 | 780 |  | 2350 | 1520 | 230 | 6180 | 1330 | 520 | CC50 (SK-OV-3): 8010 nM; TGI (SK-OV-3): 3270 nM; CC50 (K-562): 7530 nM; TGI (K-562): 2270 nM; GI50 (SNB-19; Homo sapiens, SNB-19): 1220 nM; CC50 (SNB-19; Homo sapiens): 5580 nM; TGI (SNB-19; SNB-19): 2610 nM |
| CCCCN1CCN(c2ccc3[nH]c(-c4ccc5[nH]c(-c6ccc(C(F)(F)F)cc6)nc5c4)nc3c2)CC1 [12b, 5-(5-(4-Butylpiperazin-1-yl)-1H-benzo[d]imidazol-2-yl)2(4(trifluoromethyl)phenyl)-1H-benzo[d]imidazole] | 1700 | 6400 | 3300 |  |  |  | 2800 | 1100 | 2800 | 250 |  | 620 | 1650 | 6800 | 3360 | 3100 | 1300 |  |  | 220 | cells in the sub-G1 phase (MDA-MB-231 cells): 7.4%; CC50 (K-562): > 100000 nM |
